Experimental data published in patent publication US20230027295A1, “FXIA INHIBITORS AND PREPARATION METHOD THEREFOR AND PHARMACEUTICAL USE THEREOF” (Shenzhen Salubris Pharmaceuticals Co., Ltd., priority 2019, published 2023).

Experiments:
Human Factor XIa = Human Factor XIa (Homo sapiens, UniProt P03951); assay: Inhibition of human coagulation factor XIa by absorptiometry (substrate S-2366); type: biochemical; conditions: 37° C., 20 min incubation, absorbance 405 nm; read-out: hFXIa IC50
Experimental: Example 50: Detection of the Biological Activity of the Compounds of the Present Invention on the Inhibition of Human Coagulation Factor XIa by Absorptiometry
Buffer: 145 mM NaCl, 5 mM KCl, 1 mg/mL PEG 8000, 30 mM HEPES, pH 7.4
(§1) 10 mM test compound dissolved in 100% DMSO was diluted with 100% DMSO to 1000, 200, 40, 8, 1.6, 0.32, 0.064, 0.0128, 0.00256, 0.00128 μM; 98 μL of FXIa enzyme solution (77.7 ng/mL) was added to each well of a 96-well plate, and 98 μL of buffer was added to the blank wells. 2 μL of compounds of different concentrations were added, and the blank and control wells were added with DMSO instead. They were mixed with a shaker, and incubated at 37° C. for 20 minutes.
Finally, 100 μL of 800 μM substrate was added to each well, and its absorbance was measured at 405 nm.

Human Factor VIIa = target: T1, Human Factor VIIa (Homo sapiens, UniProt P08709); assay: Selectivity to coagulation factors: hFVIIa (substrate S-2288); type: biochemical
T1 construct: hFVIIa: Human Factor VIIa: hFVIIa 4591L; purchased hFVIIa 4591L
T1 sequence (P08709 213-466 limits assumed): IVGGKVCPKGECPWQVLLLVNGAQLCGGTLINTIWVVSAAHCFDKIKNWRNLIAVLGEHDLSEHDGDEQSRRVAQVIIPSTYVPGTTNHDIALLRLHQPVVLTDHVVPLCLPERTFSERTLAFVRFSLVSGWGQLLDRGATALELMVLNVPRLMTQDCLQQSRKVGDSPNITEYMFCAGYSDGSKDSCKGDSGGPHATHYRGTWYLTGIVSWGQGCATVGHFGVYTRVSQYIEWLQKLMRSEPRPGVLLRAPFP
T1 sequence (P08709 61-212 partner limits assumed): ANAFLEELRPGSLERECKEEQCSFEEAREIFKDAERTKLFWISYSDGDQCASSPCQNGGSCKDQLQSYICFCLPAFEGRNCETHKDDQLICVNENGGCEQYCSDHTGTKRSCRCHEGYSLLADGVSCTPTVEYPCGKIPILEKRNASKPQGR
Experimental: (§2) Example 52: Investigation of the Selectivity of the Compounds of the Present Invention to Coagulation Factors
(§3) Enzyme: hFXa: Human Factor Xa: 71nkat. hFIIa: HT5146L. hFVIIa: Human Factor VIIa: hFVIIa 4591L. kallikrein: LOT180223.
as §1, with “8, 1.6 μM.” for “8, 1.6, 0.32, 0.064, 0.0128, 0.00256, 0.00128 μM;”, “of” for “of FXIa”, “solution” for “solution (77.7 ng/mL)”, “plate, while” for “plate, and”, “added, while” for “added, and”, “20 min.” for “20 minutes.”
(§4) The concentrations of hFXa and S-2222™ were FXa (1:28) and 800 μmol/L, respectively. The concentrations of hFIIa and S-2238™ were hFIIa (0.06 U/ml) and 500 μmol/L, respectively. The concentrations of hFVIIa and S-2288™ were hFVIIa (80 nM) and 1600 μmol/L, respectively. The concentrations of kallikrein and substrate were kallikrein (20 nM) and 1600 μmol/L, respectively.
(§5) Finally, 100 μL substrate was added to each well, and its absorbance was measured at 405 nm.

hKallikrein = target: T2, hKallikrein (Homo sapiens, UniProt P03952); assay: Selectivity to coagulation factors: kallikrein; type: biochemical
T2 construct: purchased LOT180223
T2 sequence (P03952 391-638 limits assumed): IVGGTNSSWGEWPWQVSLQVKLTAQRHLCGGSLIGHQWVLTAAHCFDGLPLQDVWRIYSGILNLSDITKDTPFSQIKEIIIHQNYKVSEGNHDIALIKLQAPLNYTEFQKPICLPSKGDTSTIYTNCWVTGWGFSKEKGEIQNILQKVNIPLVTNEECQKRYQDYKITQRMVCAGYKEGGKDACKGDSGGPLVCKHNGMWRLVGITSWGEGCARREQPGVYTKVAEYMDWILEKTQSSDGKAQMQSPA
T2 sequence (P03952 20-390 partner limits assumed): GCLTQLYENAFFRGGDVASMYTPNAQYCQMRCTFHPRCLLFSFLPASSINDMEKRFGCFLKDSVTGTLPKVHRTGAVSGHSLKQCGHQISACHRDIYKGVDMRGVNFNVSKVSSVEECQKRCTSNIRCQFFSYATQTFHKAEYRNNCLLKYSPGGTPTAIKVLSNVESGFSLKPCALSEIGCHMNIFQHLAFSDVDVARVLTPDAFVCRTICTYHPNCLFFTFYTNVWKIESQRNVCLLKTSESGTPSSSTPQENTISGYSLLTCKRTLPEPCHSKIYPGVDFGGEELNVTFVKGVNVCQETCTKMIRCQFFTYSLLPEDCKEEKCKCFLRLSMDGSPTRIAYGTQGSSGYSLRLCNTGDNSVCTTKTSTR
Experimental: as §2, §3
kallikrein buffer: 50 mM Tris, 50 mM Mimidazole and 150 mM NaCl (pH 8.2).
as §1, with “8, 1.6 μM.” for “8, 1.6, 0.32, 0.064, 0.0128, 0.00256, 0.00128 μM;”, “of” for “of FXIa”, “solution” for “solution (77.7 ng/mL)”, “plate, while” for “plate, and”, “added, while” for “added, and”, “20 min.” for “20 minutes.”
as §4, §5

CYP3A4 = target: T3, CYP3A4 (Homo sapiens, UniProt P08684); assay: CYP enzyme inhibition in liver microsomes: CYP3A4; type: in vitro ADME; conditions: 0.2 mg/mL liver microsomes
T3 construct: Liver microsomes (150-donor, Corning, Cat. 452117; Lot; 38292), NADPH; tissue Corning 452117; host or cells: liver microsomes, 150-donor pool
T3 sequence (P08684 whole entry): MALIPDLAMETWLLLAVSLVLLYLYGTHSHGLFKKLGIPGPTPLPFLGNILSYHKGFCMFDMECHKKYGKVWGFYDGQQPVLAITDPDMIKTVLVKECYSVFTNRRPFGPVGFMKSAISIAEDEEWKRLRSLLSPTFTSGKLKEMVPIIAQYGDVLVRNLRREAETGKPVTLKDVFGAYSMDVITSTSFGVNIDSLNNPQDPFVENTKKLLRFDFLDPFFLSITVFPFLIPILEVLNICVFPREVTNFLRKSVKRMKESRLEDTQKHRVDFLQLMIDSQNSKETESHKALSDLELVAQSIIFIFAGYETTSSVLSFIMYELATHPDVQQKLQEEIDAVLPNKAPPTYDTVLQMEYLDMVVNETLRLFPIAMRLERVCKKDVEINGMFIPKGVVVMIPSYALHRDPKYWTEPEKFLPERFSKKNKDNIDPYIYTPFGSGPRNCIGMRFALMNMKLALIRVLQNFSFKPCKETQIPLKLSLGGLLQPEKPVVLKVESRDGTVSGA
Experimental: Example 55: Investigation of CYP Enzyme Inhibition by the Compounds of the Present Invention Liver microsomes (150-donor, Corning, Cat. 452117; Lot. 38292), NADPH. […] After pre-incubating for 8 min, 10 mM NADPH was added to start the reaction, and the final concentration of NADPH was 1 mM. After a period of incubation, an internal standard such as methanol was added to stop the reaction. The amount of substrate metabolites generated in each reaction well was detected. […]

CYP3A5 = target: T4, CYP3A5 (Homo sapiens, UniProt P20815); assay: CYP enzyme inhibition in liver microsomes: CYP3A5; type: in vitro ADME; conditions: 0.2 mg/mL liver microsomes
T4 construct: Liver microsomes (150-donor, Corning, Cat. 452117; Lot; 38292), NADPH; tissue Corning 452117; host or cells: liver microsomes, 150-donor pool
T4 sequence (P20815 whole entry): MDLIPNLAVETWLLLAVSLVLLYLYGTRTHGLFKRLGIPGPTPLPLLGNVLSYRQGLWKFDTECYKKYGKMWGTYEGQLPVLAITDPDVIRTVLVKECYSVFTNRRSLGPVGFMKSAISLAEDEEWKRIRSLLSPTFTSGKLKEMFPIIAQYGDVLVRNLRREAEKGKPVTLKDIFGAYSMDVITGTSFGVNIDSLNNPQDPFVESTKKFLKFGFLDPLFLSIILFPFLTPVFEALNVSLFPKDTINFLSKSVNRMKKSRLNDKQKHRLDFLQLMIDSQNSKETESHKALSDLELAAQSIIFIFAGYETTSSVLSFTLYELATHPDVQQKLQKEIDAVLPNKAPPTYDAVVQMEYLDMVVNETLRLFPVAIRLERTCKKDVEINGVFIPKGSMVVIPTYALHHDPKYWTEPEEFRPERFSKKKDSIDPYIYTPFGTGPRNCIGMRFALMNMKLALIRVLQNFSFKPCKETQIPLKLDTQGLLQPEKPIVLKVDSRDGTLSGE
Experimental: Example 55: Investigation of CYP Enzyme Inhibition by the Compounds of the Present Invention Liver microsomes (150-donor, Corning, Cat. 452117; Lot. 38292), NADPH. A 0.2 mg/mL microsome system was prepared, each test substance and substrate were added, and the final concentration of the test substance was 50 μM. After pre-incubating for 8 min, 10 mM NADPH was added to start the reaction, and the final concentration of NADPH was 1 mM. After a period of incubation, an internal standard such as methanol was added to stop the reaction. The amount of substrate metabolites generated in each reaction well was detected. Data processing: Taking the metabolite generation in the blank well as 100%, the reduction of metabolite generation in each well of the test substance was calculated, and the inhibition rate was calculated.

hERG = target: T5, hERG (Homo sapiens, UniProt Q12809); assay: hERG current in HEK293-hERG stably transfected cells; type: cell-based; conditions: human, HEK293 cells stably transfected with hERG; at 10 μM; read-out: hERG peak current inhibition
T5 construct: host or cells: HEK293
T5 sequence (Q12809 whole entry): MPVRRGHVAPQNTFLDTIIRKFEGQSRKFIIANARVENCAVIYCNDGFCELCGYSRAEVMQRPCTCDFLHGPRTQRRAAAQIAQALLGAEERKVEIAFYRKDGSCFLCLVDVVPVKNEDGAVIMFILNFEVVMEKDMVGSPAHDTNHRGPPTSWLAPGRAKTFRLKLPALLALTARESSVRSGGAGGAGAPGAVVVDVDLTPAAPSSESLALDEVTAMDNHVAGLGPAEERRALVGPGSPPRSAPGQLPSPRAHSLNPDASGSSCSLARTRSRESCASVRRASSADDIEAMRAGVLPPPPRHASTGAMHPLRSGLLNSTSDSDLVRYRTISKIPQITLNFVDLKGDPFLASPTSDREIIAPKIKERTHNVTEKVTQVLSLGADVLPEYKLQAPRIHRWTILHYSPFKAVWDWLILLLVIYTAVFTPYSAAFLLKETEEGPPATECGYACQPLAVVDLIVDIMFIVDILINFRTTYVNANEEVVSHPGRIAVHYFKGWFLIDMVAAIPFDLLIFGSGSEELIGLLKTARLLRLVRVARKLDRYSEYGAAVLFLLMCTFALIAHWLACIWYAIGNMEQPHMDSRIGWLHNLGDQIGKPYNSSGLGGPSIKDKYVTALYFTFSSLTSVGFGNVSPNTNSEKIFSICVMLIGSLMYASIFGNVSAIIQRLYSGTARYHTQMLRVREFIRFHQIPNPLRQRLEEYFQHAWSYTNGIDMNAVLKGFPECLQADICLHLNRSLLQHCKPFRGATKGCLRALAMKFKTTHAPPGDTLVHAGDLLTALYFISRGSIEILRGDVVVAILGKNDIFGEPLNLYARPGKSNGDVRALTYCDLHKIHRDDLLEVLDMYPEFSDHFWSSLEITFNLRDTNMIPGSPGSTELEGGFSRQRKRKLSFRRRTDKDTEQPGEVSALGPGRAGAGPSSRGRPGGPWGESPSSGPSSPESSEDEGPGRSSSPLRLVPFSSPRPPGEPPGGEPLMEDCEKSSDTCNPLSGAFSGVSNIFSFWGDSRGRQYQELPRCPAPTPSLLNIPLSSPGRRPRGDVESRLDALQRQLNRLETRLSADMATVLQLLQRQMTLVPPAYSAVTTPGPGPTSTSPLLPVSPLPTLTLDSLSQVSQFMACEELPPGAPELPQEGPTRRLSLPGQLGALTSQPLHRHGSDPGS
Experimental: (§6) Example 56: Investigation on hERG of the Compound of the Present Invention
(§7) HEK293-hERG stably transfected cell line (invitrogen). DMEM medium (Gibco), HEPES (invitrogen), Blasticidin (invitrogen)
(§8) HEK293-hERG stably transfected cells were used for experiments when they were cultured to a degree of polymerization of 40%-80%. First, a blank solvent was applied to the cells to establish a baseline. […] In the presence of test compounds, hERG currents were recorded for approximately 5 minutes to reach a steady state, and then 5 sweep frequencies were captured. To ensure good performance of cultured cells and manipulations, the same batch of cells was also tested using the positive control dofetilide.
(§9) Peak current inhibition=(1−Peak tail current compound/Peak tail current vehicle)*100

hERG current = target: T6, hERG current (Homo sapiens, UniProt Q12809); assay: as above; type: cell-based; conditions: HEK293-hERG cells
T6 construct: host or cells: HEK293
T6 sequence (Q12809 whole entry): as above
Experimental: as §6, §7, §8, §9

Chain of Human Factor XIa (P03951 388-625 limits assumed): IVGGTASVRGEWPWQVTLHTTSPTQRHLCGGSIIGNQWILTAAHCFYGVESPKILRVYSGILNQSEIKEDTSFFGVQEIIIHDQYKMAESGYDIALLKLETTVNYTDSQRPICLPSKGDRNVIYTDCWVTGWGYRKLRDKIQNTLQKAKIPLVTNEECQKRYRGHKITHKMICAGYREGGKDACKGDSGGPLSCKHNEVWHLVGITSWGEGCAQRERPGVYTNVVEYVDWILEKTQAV
Chain of Human Factor XIa (P03951 19-387 partner limits assumed): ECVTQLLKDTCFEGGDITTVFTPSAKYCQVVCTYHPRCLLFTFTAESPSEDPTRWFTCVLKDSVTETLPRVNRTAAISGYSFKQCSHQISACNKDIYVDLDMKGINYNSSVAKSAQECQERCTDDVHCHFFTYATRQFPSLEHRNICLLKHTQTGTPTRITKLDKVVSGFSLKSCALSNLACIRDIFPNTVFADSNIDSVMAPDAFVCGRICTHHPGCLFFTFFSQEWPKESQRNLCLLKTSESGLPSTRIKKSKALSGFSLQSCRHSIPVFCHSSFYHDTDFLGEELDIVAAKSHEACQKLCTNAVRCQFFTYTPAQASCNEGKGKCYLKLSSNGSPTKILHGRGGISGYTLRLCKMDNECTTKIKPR

Row | Structure (SMILES) | IC50 (Human Factor XIa) [µM] | IC50 (Human Factor VIIa) [µM] | IC50 (hKallikrein) [µM] | IC50 (CYP3A4) [µM] | IC50 (CYP3A5) [µM] | inhibition at 5 min, 10 µM (hERG) [%] | IC50 (hERG current) [µM]
1 | COc1nn([C@@H](Cc2ccccc2)C(=O)Nc2ccc(C(=O)O)cc2)c(=O)cc1-c1cc(Cl)ccc1C(C)=O [Example 19, (S)-4-(2-(4-(2-acetyl-5-chlorophenyl)-3-methoxy-6-oxopyridazin-1(6H)-yl)-3-phenylpropanamido)benzoic acid] | 0.00761 | > 100 | 0.524 ± 0.0602 | > 50 | > 50 | 1.17 | > 10
2 | CCC(=O)c1ccc(Cl)cc1-c1cc(=O)n([C@@H](Cc2ccccc2)C(=O)Nc2ccc(C(=O)O)cc2)nc1OC [Example 32] | 0.00165 | > 100 | 0.103 ± 0.0149 | > 50 | > 50 | 2.8 | > 10
